# Laboratory results taken from publication PMC7288058, “Modulating the Properties of Fe(III) Macrocyclic MRI Contrast Agents by Appending Sulfonate or Hydroxyl Groups” (Molecules, 2020).
# Where “and” joins values, the source holds several entries; their conditions need not be identical. Equal values may be shown once.
# Assays:
# [1] = T1/T2 relaxivity measurements (4.7 T MRI scanner, 9.4 T NMR); conditions: pH 7.4, 37 °C; for r1 4.7 T / r2 4.7 T / r1 9.4 T: buffer
# Protocol: The r1 and r2 relaxivity of the three complexes in buffer and HSA on a 4.7-T MRI scanner and 9.4-T NMR spectrometer are shown in Table 2. In buffer, the r1 relaxivity values of Fe(L1)(OH2) and Fe(L3)(OH2) are similar at 2.0 mM^−1∙s^−1 and 2.2. mM^−1∙s^−1, respectively, at 4.7 T. Both complexes have higher relaxivity than Fe(EDTA) (1.4 mM^−1∙s^−1 at 4.7 T) which has a single exchangeable inner-sphere water molecule. The r1 relaxivity value of the […] complex in buffer is two-fold less (1.0 mM^−1∙s^−1) than that of Fe(L1)(OH2) or […] at 4.7 T. In HSA-containing solutions, the r1 relaxivity values of Fe(L1)(OH2), Fe(L2) and Fe(L3)(OH2) change slightly, consistent with weak binding to this blood protein. […] As expected, increasing the field strength from 4.7 T to 9.4 T caused a decrease in the r1 relaxivity value of Gd(DTPA) to 2.5 mM^−1∙s^−1 from 3.1 mM^−1∙s^−1 [19]. […] This peculiar feature of Fe(III) complexes was predicted from simulation of NMRD profiles.
# Relaxivity of the complexes was determined at 4.7 T (small animal MRI) and 9.4 T (400 MHz NMR). Both T1 and T2 experiments were performed at 37 °C for the concentration range of 50.0 µM to 0.400 mM Fe(III) complex. The solutions contained 0.100 M NaCl and HEPES buffer (pH 7.4, 20 mM). An inversion recovery True FISP acquisition was used to measure T1 relaxation rate constants. T2 relaxation rates were measured by using multi-echo, Carr–Purcell–Meiboom–Gill spin-echo sequence with a fixed TR of 3000 ms and TE times ranging from 20–1200 ms. The T1 and T2 relaxivity values were calculated by using linear regression fitting of 1/T1 (s^−1) and 1/T2 (s^−1) versus concentration (mM) in Microsoft Excel.
# [2] = Cyclic voltammetry, Fe(III)/Fe(II) electrode potential; format: physicochemical; conditions: for electrode potential (E1/2) vs. Ag/AgCl: 0.10 M potassium chloride
# Protocol: Cyclic voltammetry experiments were carried out in aqueous solutions containing 0.10 M potassium chloride at acidic and neutral pH values with potassium ferricyanide salt in aqueous solution as a reference (Figure S8, Supplementary Materials). […] The electrode potential (E1/2) of Fe(L1)(OH2) at pH 3 was 227 mV vs. Ag/AgCl (515 mV vs. normal hydrogen electrode, NHE) and was −209 mV vs. Ag/AgCl (79 mV vs. NHE) at pH 7. […] At pH 3 the E1/2 was estimated as 264 mV vs. Ag/AgCl (552 mV vs. NHE), and, at pH 7, it was estimated as −618 mV vs. Ag/AgCl (−330 mV vs. NHE). For comparison, the E1/2 of Fe(L3)(OH2) at pH 3 was reported as 112 mV vs. Ag/AgCl (400 mV vs. NHE) and, at pH 7, the value was −588 mV vs. Ag/AgCl (−300 mV vs. NHE).
# Cyclic voltammetry measurements were performed in 10.0-mL aqueous solutions containing 0.100 M […] as supporting electrolyte and 1.00 mM Fe(III) complexes. A standard three-electrode cell was used with a polished glassy carbon as the working electrode, a Pt wire as the auxiliary electrode, and an Ag/AgCl (1.00 mM) reference electrode. The samples were purged with extra pure N2 gas to remove the dissolved oxygen for each measurement. Current was measured with a 10-s prescan delay between −1.5 V and 1.5 V at a sweep rate of 100 and 500 mV/s, where 1.00 mM ferrocyanide was used as a standard solution. The redox potential of Fe(II)/(III) was calculated from the anodic (Epa) and cathodic (Epc) potentials, as EFe(II)/(III) = (Epa + Epc)/2 in reference to Ag/AgCl (1.00 mM), then converted to a value referenced to the normal hydrogen electrode (NHE).
# [3] = Aqueous solubility (observations); format: physicochemical; conditions: for aqueous solubility: words
SMILES,r1 4.7 T [1],r2 4.7 T [1] [mM⁻¹ s⁻¹],r1 9.4 T [1] [mM⁻¹ s⁻¹],r1 in HSA 4.7 T [1] [mM⁻¹ s⁻¹],r2 in HSA 4.7 T [1] [mM⁻¹ s⁻¹],"electrode potential (E1/2) vs. Ag/AgCl ([2]; pH 3, aqueous) [mV]","electrode potential (E1/2) vs. NHE ([2]; pH 3, converted from Ag/AgCl) [mV]","electrode potential (E1/2) vs. Ag/AgCl ([2]; pH 7, aqueous) [mV]","electrode potential (E1/2) vs. NHE ([2]; pH 7, converted from Ag/AgCl) [mV]",aqueous solubility [3],"solubility ([3]; pH 6–7, concentration needed for 17O-NMR) [mM]"
C[C@H]([O-])CN1CCN(CCCS(=O)(=O)[O-])CCN(C[C@H](C)O)CC1.O.[Fe+3] [Fe(L1)(OH2)],2.0 mM⁻¹ s⁻¹ and 2.0 ± 0.19 mM⁻¹ s⁻¹,6.1 ± 0.77,2.0 ± 0.2,2.5 ± 0.63,5.5 ± 0.98,227,515,−209,79,excellent aqueous solubility,
C[C@H]([O-])CN1CCN(C[C@H](C)O)CCN(C[C@H](C)O)CC1.[Fe+3] [Fe(L2)],0.97 ± 0.12 mM⁻¹ s⁻¹,1.8 ± 0.47,1.4 ± 0.08,1.2 ± 0.22,2.3 ± 1.1,~264,~552,~−618,~−330,moderate solubility,< 10
